Where two headings read alike, the source gives them in different places.
Tests used:
[1] = target: BTK enzyme (recombinant full-length BTK, hBTK) (Homo sapiens (Human), UniProt Q06187); test: Btk enzyme activity assay, LANCE TR-FRET; format: biochemical; settings: 50 pM hBTK, 2 μM biotin-A5-peptide, 25 μM ATP; 60 minute compound & enzyme incubation; read-out: BTK binding IC50
Method: Btk Enzyme Activity Assay Methods
BTK enzymatic activity was determined with the LANCE (Lanthanide Chelate Excite) TR-FRET (Time-resolved fluorescence resonance energy transfer) assay. […] After 60 minutes incubation with detection reagents, reaction plates were read on a PerkinElmer EnVision plate reader using standard TR-FRET protocol.

HeLa cells = test: [3H] Adenosine uptake assay; format: cell-based; settings: accumulation of tritiated adenosine into HeLa cells, compound concentration range 10 μM to 0.032 nM, read-out: ADU inhibition IC50 (adenosine uptake inhibition potency)
Method: Compounds are also screen in an adenosine uptake functional cellular assay using the protocol described below:
[^3H] Adenosine Uptake Assay Methods
Adenosine uptake activity was determined by monitoring the accumulation of tritiated adenosine into HeLa cells (ATCC catalog #CCL-2) using a PMT-based radiometric detection instrument. […] These cells were incubated overnight at 37° C. in a humidified atmosphere with 5% (v/v) CO2. After this time the growth medium was removed and replaced with 40 μL assay medium comprising: Hanks balanced salts solution (HBSS; Thermo Fisher Catalog #SH30268.01)+5% (v/v) FBS. Compound stock solutions in DMSO were diluted in assay medium to 2.5× final compound concentration maintaining a constant DMSO concentration of 0.25% (v/v). 40 μL of compound in assay medium was dispensed into individual wells of the Cytostar-T plates and the plates were incubated for 30 minutes under ambient laboratory conditions. Following this incubation, 20 μL of 500 nM[^3H] adenosine (American Radiolabeled Chemicals Inc. Catalog #ART0287) in assay medium was added and incubated for a further 60 minutes under ambient laboratory conditions. The amount of radiolabel accumulation was then determined using a Perkin Elmer Topcount NXT microplate reader. In brief, HeLa cells adhere to the bottom of the Cytostar-T plate, uptake of [^3H]adenosine into these cells brings the radiolabel into sufficient proximity to excite the scintillant in the base of the plates. These events are captured by single PMT, time-resolved coincidence counting. IC50 values were determined by 4 parameter robust fit of counts per second values vs. (Log10) compound concentrations.

Chain of BTK enzyme (recombinant full-length BTK, hBTK) (Q06187 whole entry): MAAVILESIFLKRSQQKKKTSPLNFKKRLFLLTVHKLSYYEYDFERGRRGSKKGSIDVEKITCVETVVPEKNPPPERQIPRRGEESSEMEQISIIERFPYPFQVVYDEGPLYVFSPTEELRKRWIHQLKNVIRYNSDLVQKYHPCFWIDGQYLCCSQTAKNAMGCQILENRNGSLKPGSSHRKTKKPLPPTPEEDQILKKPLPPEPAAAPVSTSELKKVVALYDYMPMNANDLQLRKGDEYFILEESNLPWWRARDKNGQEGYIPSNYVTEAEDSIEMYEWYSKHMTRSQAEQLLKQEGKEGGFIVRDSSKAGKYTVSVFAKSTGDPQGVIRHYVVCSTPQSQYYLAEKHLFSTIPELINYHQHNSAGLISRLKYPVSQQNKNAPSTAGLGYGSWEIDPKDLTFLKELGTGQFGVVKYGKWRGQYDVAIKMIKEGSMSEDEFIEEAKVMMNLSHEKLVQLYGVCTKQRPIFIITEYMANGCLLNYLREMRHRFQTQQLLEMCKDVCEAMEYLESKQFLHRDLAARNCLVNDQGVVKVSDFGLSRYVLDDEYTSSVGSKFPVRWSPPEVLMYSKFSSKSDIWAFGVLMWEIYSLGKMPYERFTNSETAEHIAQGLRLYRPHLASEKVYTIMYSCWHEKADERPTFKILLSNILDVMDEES

Row | IC50 [1] [nM] | IC50 (HeLa cells; Homo sapiens, HeLa) [nM] | IC50 (HeLa cells) [nM] | Structure (SMILES)
1 | 0.73 | 1590 |  | C[C@@]1(C(=O)O)CC[C@@](C)(c2nc(-c3ccc(C(=O)Nc4cc(C(F)(F)F)ccn4)cc3)c3c(N)nccn23)C1 [Example 79, (1R,3R)-3-[8-amino-1-(4-{[4-(trifluoromethyl)pyridin-2-yl]carbamoyl}phenyl)imidazo[1,5-a]pyrazin-3-yl]-1,3-dimethylcyclopentane carboxylic acid]
2 | 57.2 |  | 10000 | CC(C)C1(C(=O)O)CCC(C)(c2nc(-c3ccc(C(=O)Nc4cc(C(F)(F)F)ccn4)cc3)c3c(N)nccn23)C1 (stereo not shown) [Example 145, 3-[8-amino-1-(4-{[4-(trifluoromethyl)pyridin-2-yl]carbamoyl}phenyl)imidazo[1,5-a]pyrazin-3-yl]-3-methyl-1-(1-methylethyl) cyclopentane-carboxylic acid]
3 | 0.37 | 1080 |  | CC1(C)[C@H](c2nc(-c3ccc(C(=O)Nc4cc(C(F)(F)F)ccn4)cc3)c3c(N)nccn23)CC[C@]1(C)C(=O)O [Example 69, (1S,3R)-3-[8-amino-1-(4-{[4-(trifluoromethyl)pyridin-2-yl]carbamoyl}phenyl)imidazo[1,5-a]pyrazin-3-yl]-1,2,2-trimethylcyclopentane carboxylic acid]
4 | 1.5 | 5080 |  | CC1(C)CC(c2nc(-c3ccc(C(=O)Nc4cc(C(F)(F)F)ccn4)cc3)c3c(N)nccn23)CCC1C(=O)O (stereo not shown) [Example 20, 4-(8-amino-1-(4-((4-(trifluoromethyl)pyridin-2-yl)carbamoyl)phenyl)imidazo[1,5-a]pyrazin-3-yl)-2,2-dimethylcyclohexanecarboxylic acid]
5 | 1.6 | 9380 |  | CCOc1cc(C(=O)Nc2cc(C(F)(F)F)ccn2)c(F)cc1-c1nc([C@@]2(C)CC[C@](C)(C(=O)O)C2)n2ccnc(N)c12 [Example 128, (1S,3S)-3-[8-amino-1-(2-ethoxy-5-fluoro-4-{[4-(trifluoromethyl)pyridin-2-yl]carbamoyl}phenyl)imidazo[1,5-a]pyrazin-3-yl]-1,3-dimethylcyclopentane carboxylic acid]
6 | 0.17 | 3420 |  | C[C@@]1(C(=O)O)CC[C@@](C)(c2nc(-c3ccc(C(=O)Nc4cc(C(F)(F)F)ccn4)cc3F)c3c(N)nccn23)C1 [Example 136, (1R,3R)-3-[8-amino-1-(2-fluoro-4-{[4-(trifluoromethyl)pyridin-2-yl]carbamoyl}phenyl)imidazo[1,5-a]pyrazin-3-yl]-1,3-dimethylcyclopentane carboxylic acid]
7 | 22.9 | 2770 |  | C[C@]1(C(=O)O)CCCN(c2nc(-c3ccc(C(=O)Nc4cc(C(F)(F)F)ccn4)cc3)c3c(N)nccn23)C1 [Example 42, (3S)-1-[8-amino-1-(4-{[4-(trifluoromethyl)pyridin-2-yl]carbamoyl}phenyl)imidazo[1,5-a]pyrazin-3-yl]-3-methylpiperidine-3-carboxylic acid]
8 | 0.27 | 1700 |  | CC1(C(=O)O)CCC(C)(c2nc(-c3ccc(C(=O)Nc4cc(C(F)(F)F)ccn4)cc3)c3c(N)nccn23)C1 (stereo not shown) [Example 21, 3-(8-amino-1-(4-((4-(trifluoromethyl)pyridin-2-yl)carbamoyl)phenyl)imidazo[1,5-a]pyrazin-3-yl)-1,3-dimethylcyclopentanecarboxylic acid]
9 | 456 |  | 10000 | CC(C)C1(C(=O)O)CCC(C)(c2nc(-c3ccc(C(=O)Nc4cc(C(F)(F)F)ccn4)cc3)c3c(N)nccn23)C1 (stereo not shown) [Example 146, 3-[8-amino-1-(4-{[4-(trifluoromethyl)pyridin-2-yl]carbamoyl}phenyl)imidazo[1,5-a]pyrazin-3-yl]-3-methyl-1-(1-methylethyl) cyclopentane-carboxylic acid]
10 | 1.4 |  | 10000 | CC(C)(C(=O)O)C1CCC(c2nc(-c3ccc(C(=O)Nc4cc(C(F)(F)F)ccn4)cc3)c3c(N)nccn23)C1 (stereo not shown) [Example 94, 2-{3-[8-amino-1-(4-{[4-(trifluoromethyl)pyridin-2-yl]carbamoyl}phenyl)imidazo[1,5-a]pyrazin-3-yl]cyclopentyl}-2-methylpropanoic acid]
11 | 0.9 | 3660 |  | C[C@@]1(C(=O)O)CCC[C@@](C)(c2nc(-c3ccc(C(=O)Nc4cc(C(F)(F)F)ccn4)cc3)c3c(N)nccn23)C1 [Example 137, (1R,3R)-3-[8-amino-1-(4-{[4-(trifluoromethyl)pyridin-2-yl]carbamoyl}phenyl)imidazo[1,5-a]pyrazin-3-yl]-1,3-dimethylcyclohexane-carboxylic acid]

The next lines start with the compound.

Row | Structure (SMILES) | IC50 [1] [nM] | IC50 (HeLa cells; Homo sapiens, HeLa) [nM] | IC50 (HeLa cells) [nM]
12 | CCOc1cc(C(=O)Nc2cc(C(F)(F)F)ccn2)ccc1-c1nc(C23CCC(C(=O)O)(CC2=O)C(=O)C3)n2ccnc(N)c12 (stereo not shown) [Example 64, 4-[8-amino-1-(2-ethoxy-4-{[4-(trifluoromethyl)pyridin-2-yl]carbamoyl}phenyl)imidazo[1,5-a]pyrazin-3-yl]-2,5-dioxobicyclo[2.2.2] octane-1-carboxylic acid] | 2.6 | 10000 | 
13 | CC(C)(C(=O)O)N1CCO[C@@H](c2nc(-c3ccc(C(=O)Nc4cc(C(F)(F)F)ccn4)cc3)c3c(N)nccn23)C1 [Example 183, 2-{(2R)-2-[8-amino-1-(4-{[4-(trifluoromethyl)pyridin-2-yl]carbamoyl}phenyl)imidazo [1,5-a]pyrazin-3-yl]morpholin-4-yl}-2-methylpropanoic acid] | 13.2 | 665 | 
14 | CCOc1cc(C(=O)Nc2cc(C(F)(F)F)ccn2)ccc1-c1nc([C@H]2C[C@H]3CC[C@@H](C2)[C@H]3C(=O)O)n2ccnc(N)c12 [Example 104, (3-endo,8-syn)-3-[8-amino-1-(2-ethoxy-4-{[4-(trifluoromethyl)pyridin-2-yl]carbamoyl}phenyl)imidazo[1,5-a]pyrazin-3-yl]bicyclo[3.2.1] octane-8-carboxylic acid] | 5.2 | 10000 | 
15 | CCOc1cc(C(=O)Nc2cc(C(F)(F)F)ccn2)c(F)cc1-c1nc([C@@H]2CC[C@](C)(C(=O)O)C2(C)C)n2ccnc(N)c12 [Example 114, (1S,3R)-3-[8-amino-1-(2-ethoxy-5-fluoro-4-{[4-(trifluoromethyl)pyridin-2-yl]carbamoyl}phenyl)imidazo[1,5-a]pyrazin-3-yl]-1,2,2-trimethylcyclopentane carboxylic acid] | 0.92 | 2750 | 
16 | Nc1nccn2c(-c3cccc(C(=O)O)c3)nc(-c3ccc(C(=O)Nc4cc(C(F)(F)F)ccn4)cc3)c12 [Example 23, 3-(8-amino-1-(4-((4-(trifluoromethyl)pyridin-2-yl)carbamoyl)phenyl)imidazo[1,5-a]pyrazin-3-yl)benzoic acid] | 0.56 | 10000 | 
17 | Nc1nccn2c(C34CCC(C(=O)O)(CC3)CC4)nc(-c3ccc(C(=O)Nc4cc(C(F)(F)F)ccn4)cc3Cl)c12 [Example 151, 4-[8-amino-1-(2-chloro-4-{[4-(trifluoromethyl)pyridin-2-yl]carbamoyl}phenyl)imidazo[1,5-a]pyrazin-3-yl]bicyclo[2.2.2] octane-1-carboxylic acid] | 0.38 | 1490 | 
18 | C[C@H]1CO[C@@H](c2nc(-c3ccc(C(=O)Nc4cc(C(F)(F)F)ccn4)cc3F)c3c(N)ncc(Cl)n23)CN1[C@H]1CC[C@@](C)(C(=O)O)CC1 [Example 201, cis-4-{(2R,5S)-2-[8-amino-5-chloro-1-(2-fluoro-4-{[4-(trifluoromethyl)pyridin-2-yl]carbamoyl}phenyl)imidazo [1,5-a]pyrazin-3-yl]-5-methylmorpholin-4-yl}-1-methylcyclohexanecarboxylic acid] | 1.7 | 4060 | 
19 | C[C@H]1CO[C@@H](c2nc(-c3ccc(C(=O)Nc4cc(C(F)(F)F)ccn4)cc3F)c3c(N)nccn23)CN1[C@H]1CC[C@@](C)(C(=O)O)CC1 [Example 194, cis-4-{(2R,5S)-2-[8-amino-1-(2-fluoro-4-{[4-(trifluoromethyl)pyridin-2-yl]carbamoyl}phenyl)imidazo [1,5-a]pyrazin-3-yl]-5-methylmorpholin-4-yl}-1-methylcyclohexanecarboxylic acid] | 1.7 | 4040 | 
20 | Nc1nccn2c(-c3ccc(C(=O)O)cc3)nc(-c3ccc(C(=O)Nc4cc(C(F)(F)F)ccn4)cc3)c12 [Example 26, 4-[8-amino-1-(4-{[4-(trifluoromethyl)pyridin-2-yl]carbamoyl}phenyl)imidazo[1,5-a]pyrazin-3-yl]benzoic acid] | 0.97 | 5580 | 
